Columns and labels:
[1] = in vivo; cited from earlier work
[2] = Serum concentrations during 7-day local irrigation of the infected joint (PJI clinical investigation); format: in vivo, human; settings: daily dose 2.6 g at 2,500 mcg/mL by irrigation for 7 days
Method: Irrigation of vancomycin and tobramycin within the manufacturer's recommended systemic dose for the treatment of PJI has been investigated clinically. A daily dose of 2.6 g vancomycin at a concentration of 2,500 mcg/mL and a daily dose of 80 mg of tobramycin at 1,600 mcg/mL were administered by irrigation to the infected joint for 7 days following stage one surgery of a two-stage exchange arthroplasty treatment. […] The serum concentrations of vancomycin over a 7-day period for 37 human subjects who received local irrigation of 50 cc at a concentration of 2,500 mcg/mL intermittently are shown in FIG. 6.

[3] = test system: common PJI organisms; experiment: Minimum biofilm eradication concentration (MBEC); format: cell-based; settings: multiple common PJI organisms
Text: The formation of biofilm, a frequent occurrence in infected wounds with a medical device in situ such as PJI, BII, or FRI, begins early after onset of infection and provides an additional mechanism of resistance to antibiotic therapy. It is well established that the organisms in a mature biofilm structure, formed in a matter of days or a few weeks, are not susceptible to common antibiotics at the typical MIC of planktonic counterparts. […] The concentration at which eradication of an organism in a biofilm is accomplished is known as the minimum biofilm eradication concentration (MBEC) for the specific antimicrobial agent and organism tested. MBEC is not the same for all antimicrobial agents used to treat the same organism, nor is it the same for one antimicrobial agent applied to different strains or organisms.

[4] = instillation of 50,000-100,000 mcg/mL once or twice daily into the joint space; cited from earlier work

SMILES	maximum safe level, peak serum concentrations [1] [µg/mL]	sustained trough levels associated with toxicity [1] [µg/mL]	serum concentration levels [2]	MBEC [3]	maximum safe level, trough serum concentrations [1] [µg/mL]	serum concentrations [4]
NC[C@H]1O[C@H](O[C@H]2[C@H](O)[C@@H](O[C@H]3O[C@H](CO)[C@@H](O)[C@H](N)[C@H]3O)[C@H](N)C[C@@H]2N)[C@H](N)C[C@@H]1O [tobramycin]	10	> 2				
CN[C@H](CC(C)C)C(=O)N[C@H]1C(=O)N[C@@H](CC(N)=O)C(=O)N[C@H]2C(=O)N[C@H]3C(=O)N[C@H](C(=O)N[C@H](C(=O)O)c4cc(O)cc(O)c4-c4cc3ccc4O)[C@H](O)c3ccc(c(Cl)c3)Oc3cc2cc(c3O[C@@H]2O[C@H](CO)[C@@H](O)[C@H](O)[C@H]2O[C@H]2C[C@](C)(N)[C@H](O)[C@H](C)O2)Oc2ccc(cc2Cl)[C@H]1O [vancomycin]			well below the safe serum concentration	greater than 4,000 mcg/mL	30	serum concentrations exceeding safe limits in multiple patients

From patent US20260263553A1, “METHODS OF TREATING A LOCALIZED INFECTION WITH LOCALLY ADMINISTERED ANTIBIOTICS” (Osteal Therapeutics, Inc., priority 2023, published 2026)
